18 compounds from article PMC8330636, “Design and enantioselective synthesis of 3-(α-acrylic acid) benzoxaboroles to combat carbapenemase resistance” (Chemical Communications (Cambridge, England), 2021) can be followed below.

Like-named read-outs stand apart in the source and are kept apart here.

Assay [1] concerns the target T1, OXA-48 (Klebsiella pneumoniae, UniProt Q6XEC0).
T1 construct: purified recombinant; class D serine beta-lactamase; construct details only in ESI
As to the kind of experiment: inhibition of purified recombinant enzyme. Type of assay: biochemical. As to conditions: read-out: Class D OXA-48.

Assay [2] addresses T2, KPC-2 (Klebsiella pneumoniae, UniProt Q9F663).
T2 construct: purified recombinant; class A serine beta-lactamase; construct details only in ESI
Description: inhibition of purified recombinant enzyme. The class given is biochemical. The note with it: read-out: Class A KPC-2.

Assay [3] has as its target T3, Class B1 NDM-1 (Klebsiella pneumoniae, UniProt C7C422).
T3 construct: gene blaNDM-1
Description: biochemical. More on the design: inhibition of purified recombinant beta-lactamases, IC50.

In assay [4] the target is T2, KPC-2. As to the kind of experiment: biochemical. On the set-up: inhibition of purified recombinant beta-lactamases, IC50. The note with it: read-out: Class A KPC-2.
The target of assay [5] is T1, OXA-48. As to the kind of experiment: biochemical. On the set-up: inhibition of purified recombinant beta-lactamases, IC50. The note with it: read-out: Class D OXA-48.
The target of assay [6] is T3, Class B1 NDM-1. As to the kind of experiment: biochemical. On the set-up: inhibition of purified recombinant beta-lactamases, IC50 from dose-response curves; read-out not stated in excerpts. The text has this:
This selectivity was mostly, but not exclusively observed for the other β-lactamases, substantial inhibition of which was more sporadic than for KPC-2 (Table 2). The KPC-2 stereoselectivity for the benzoxaborole derivatives is interesting since the penicillin substrates of some of the β-lactamases have a (2S) C-3 carbon adjacent to their C-2 carboxylate. The difference in results for the (R)- and (S)-benzoxaboroles may reflect different distances between their carboxylate and electrophilic boron; the analogous carboxylate to β-lactam distance is proposed to be important with respect to antibacterial activity.[11]

T1 sequence (Q6XEC0 23-265 limits assumed): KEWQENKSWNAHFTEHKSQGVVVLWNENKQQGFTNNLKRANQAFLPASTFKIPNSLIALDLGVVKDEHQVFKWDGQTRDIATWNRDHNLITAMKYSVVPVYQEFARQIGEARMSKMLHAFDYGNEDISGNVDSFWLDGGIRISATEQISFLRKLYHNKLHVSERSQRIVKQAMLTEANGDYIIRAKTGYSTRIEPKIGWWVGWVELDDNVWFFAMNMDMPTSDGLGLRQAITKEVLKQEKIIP
T3 sequence (C7C422 whole entry, looked up): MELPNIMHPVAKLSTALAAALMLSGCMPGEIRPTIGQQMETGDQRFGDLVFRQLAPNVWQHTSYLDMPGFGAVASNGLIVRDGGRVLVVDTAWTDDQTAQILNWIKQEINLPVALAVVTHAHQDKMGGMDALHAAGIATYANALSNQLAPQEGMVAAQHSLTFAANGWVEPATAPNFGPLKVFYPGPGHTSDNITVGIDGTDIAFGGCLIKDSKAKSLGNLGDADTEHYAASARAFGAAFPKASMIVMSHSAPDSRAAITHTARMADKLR
T2 sequence (Q9F663 25-293 limits assumed): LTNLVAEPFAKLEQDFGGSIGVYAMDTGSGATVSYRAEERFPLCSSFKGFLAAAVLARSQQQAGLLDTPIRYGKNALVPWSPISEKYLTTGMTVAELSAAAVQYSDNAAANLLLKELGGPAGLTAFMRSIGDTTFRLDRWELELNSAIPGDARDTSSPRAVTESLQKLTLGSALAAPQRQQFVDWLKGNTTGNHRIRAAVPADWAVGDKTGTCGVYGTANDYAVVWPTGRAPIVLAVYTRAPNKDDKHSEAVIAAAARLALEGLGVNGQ

With `C=C(C(=O)O)[C@@H]1OB(O)c2ccc(F)cc21` [(R)-4f], the figures for the IC50 on OXA-48 [1] and on KPC-2 [2] were 10.1 µM and 3.87 µM, respectively.
For the compound `C=C(C(=O)O)[C@@H]1OB(O)c2cc(Oc3ccc(Cl)cc3)ccc21` [(R)-4s], the IC50 turned out to be 146 µM at Class B1 NDM-1 [3], 0.27 µM at KPC-2 [4] and 0.85 µM on OXA-48 [5].
With `C=C(C(=O)O)[C@@H]1OB(O)c2cc(Oc3ccc(OC)cc3)ccc21` [(R)-4q], the IC50 at OXA-48 [1] is 0.43 µM; at KPC-2 [2], 0.07 µM.
For the compound `C=C(C(=O)O)[C@@H]1OB(O)c2ccc(OC)cc21` [(R)-4c], the IC50 at OXA-48 [1] was 42.5 µM; on KPC-2 [2] it was 7.62 µM.
On the same counts, the results for `C=C(C(=O)O)[C@@H]1OB(O)c2cc(F)ccc21` [(R)-4j] are 5.97 µM and 0.97 µM.
As to `C=C(C(=O)O)[C@@H]1OB(O)c2ccccc21` [(R)-4a], the values for the IC50 on OXA-48 [1] and on KPC-2 [2] were 15.8 µM and 3.08 µM, respectively.
Turning to `C=C(C(=O)O)[C@@H]1OB(O)c2ccc(Oc3cccc(C)c3)cc21` [(R)-4n], the IC50 is 110 µM at Class B1 NDM-1 [3], 2.11 µM at KPC-2 [4] and 4.1 µM at OXA-48 [5].
Consider `C=C(C(=O)O)[C@H]1OB(O)c2ccccc21` [(S)-4a], for which the IC50 was 14.1 µM on OXA-48 [1], over 600 µM on Class B1 NDM-1 [6] and 0.48 µM on KPC-2 [2].
For `C=C(C(=O)O)[C@@H]1OB(O)c2ccc(Oc3ccc(C(F)(F)F)cc3)cc21` [(R)-4o], the IC50 at Class B1 NDM-1 [3] is over 600 µM; at KPC-2 [4], 3.76 µM; at OXA-48 [5], 7.73 µM.
On the same counts, the results for `C=C(C(=O)O)[C@@H]1OB(O)c2ccc(OCc3ccccc3)cc21` [(R)-4p] are over 300 µM, 1.17 µM and 7.55 µM.
For the compound `C=C(C(=O)O)[C@H]1OB(O)c2cc(Oc3ccc(OC)cc3)ccc21` [(S)-4q], the IC50 at OXA-48 [1] worked out at 0.74 µM; at KPC-2 [2], 0.01 µM.
In the case of `C=C(C(=O)O)[C@@H]1OB(O)c2ccc(Oc3ccc(C)cc3)cc21` [(R)-4m], the values for the IC50 on Class B1 NDM-1 [3], at KPC-2 [4] and at OXA-48 [5] were 352 µM, 3.58 µM and 6.24 µM, respectively.
Regarding `C=C(C(=O)O)[C@H]1OB(O)c2cc(F)ccc21` [(S)-4j], the IC50 was 12 µM at OXA-48 [1] and 0.49 µM on KPC-2 [2].
With `C=C(C(=O)O)[C@@H]1OB(O)c2cc(OCc3ccccc3)ccc21` [(R)-4t], the IC50 stood at 382 µM on Class B1 NDM-1 [3], 0.55 µM on KPC-2 [4] and 1.33 µM at OXA-48 [5].
With `NC(=O)[C@@H]1CC[C@@H]2CN1C(=O)N2OS(=O)(=O)O` [Avibactam], the IC50 on Class B1 NDM-1 [6] was over 600 µM.
On to `C=C(C(=O)O)[C@H]1OB(O)c2ccc(OC)cc21` [(S)-4c], for which the IC50 at OXA-48 [1] stood at 34.1 µM; at KPC-2 [2] it was 0.54 µM.
On to `C=C(C(=O)O)[C@@H]1OB(O)c2cc(Oc3ccc([N+](=O)[O-])cc3)ccc21` [(R)-4r], for which the IC50 at Class B1 NDM-1 [3] was found to be 308 µM; at KPC-2 [4], 0.12 µM; on OXA-48 [5] it was 2.64 µM.
In the case of `C=C(C(=O)O)[C@H]1OB(O)c2ccc(F)cc21` [(S)-4f], the IC50 at OXA-48 [1] is 14.7 µM; at KPC-2 [2], 0.34 µM.
